This is an account of results in paper PMC8422859, “A Novel Oral Arginase 1/2 Inhibitor Enhances the Antitumor Effect of PD-1 Inhibition in Murine Experimental Gliomas by Altering the Immunosuppressive Environment” (Frontiers in Oncology, 2021).

pIC50: −log10 of the molar value.

The pIC50 is −log10 of the IC50, conventionally taken in molar units.

For series [1], the system named is U87-MG human glioma cells. Description: MTT viability assay, U87-MG. It is filed as cell-based. Conditions: 24 h. The procedure:
Cell viability was assessed using MTT metabolism assay (U87 and BV2 cells) or MTS CellTiter 96® AQueous One Solution Cell Proliferation Assay (Promega) for the primary murine microglia cultures. Cells were cultured either in 96-well plates (U87 at density of 1×10^4) or 24-well plates (BV2 at density of 4×10^4 and primary microglia 8×10^4) with the indicated concentrations of the inhibitor or H2O (vehicle) for 24 h. MTT solution (Sigma Aldrich) was added to each well to a final concentration of 0.5 mg/mL. After 1 h of incubation at 37°C, water-insoluble dark blue formazan crystals were dissolved in DMSO. Optical densities (OD) were measured at 570 and 620 nm using a scanning multiwell spectrophotometer. The MTT assay was performed according to the manufacturer’s protocol. All measurements were carried out on three independent cell passages, in triplicates.
On the technique in general: Tetrazolium assays rely on reduction of a dye to a coloured formazan, in cell work by metabolically active cells.

The next series addresses T1, recombinant human ARG2 (Homo sapiens, UniProt P78540).
T1 construct: made in house; host or cells: E. coli
T1 sequence (P78540 23-354): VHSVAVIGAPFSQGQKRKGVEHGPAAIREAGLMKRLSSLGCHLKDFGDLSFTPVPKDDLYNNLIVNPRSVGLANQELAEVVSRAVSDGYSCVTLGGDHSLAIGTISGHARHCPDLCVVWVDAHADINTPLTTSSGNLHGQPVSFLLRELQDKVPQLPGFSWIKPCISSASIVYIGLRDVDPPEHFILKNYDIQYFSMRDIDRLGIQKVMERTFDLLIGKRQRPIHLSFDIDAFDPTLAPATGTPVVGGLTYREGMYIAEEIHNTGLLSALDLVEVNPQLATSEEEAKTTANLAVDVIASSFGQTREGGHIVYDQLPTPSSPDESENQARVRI
As to the kind of experiment: Recombinant arginase activity assay, hARG2. It is filed as biochemical. To be noted: 1 h at 37°C, pH 7.4, 10 mM L-arginine, urea detection; read-out: Inhibition of recombinant hARG2: IC50. The procedure:
The inhibitory activity towards hARG1 and hARG2 enzymes was assessed using recombinant enzymes biosynthesized using a prokaryotic expression system (E. coli) and purified by fast protein liquid chromatography (FPLC). Briefly, recombinant enzymes were incubated with the tested compounds for 1 h at 37°C in the reaction buffer (100 mM sodium phosphate buffer, 130 mM NaCl, 1 mg/mL BSA, pH 7.4) containing substrate (10 mM L-arginine hydrochloride) and cofactor (200 µM MnCl2). The assay is based on the detection of urea, which is generated during the conversion of L-arginine into L-ornithine catalyzed by arginases. To visualize the product, we adding a mixture of reagent A (4 mM oPA, 50 mM boric acid, 1 M sulfuric acid, 0.03% Brij-35) and reagent B (4 mM NED, 50 mM boric acid, 1 M sulfuric acid, 0.03% Brij-35) in equal proportions. The absorbance was measured at 515 nm. The urea production in the absence of any tested compound was considered as maximal enzyme activity. The absorbance in the absence of arginase (background) was considered as zero activity. Two reference compounds OAT-81 (ABH, no. 222638-65-5) and OAT-90 (2-amino-6-borono-2-(2-(3-(2,4-dichlorophenyl)propyloamino)ethyl) hexanoic acid, and two novel inhibitors OAT-1617 and OAT-1746 (the last three synthesized at OncoArendi Therapeutics) were tested. Normalized values were analyzed using GraphPad Prism 7.0 software and the IC50 values were determined.

Take `CN(C)C[C@@H]1CC[C@@H](CCB(O)O)C[C@]1(N)C(=O)O` [OAT-1746]: the “reduction of the cell viability in U87-MG glioma cells” value in series [1] (1 mM) came out at 20%. In series [1] (concentrations up to 1000 µM), the “viability of U87-MG cells (toxicity)” value is recorded as “a decrease in the viability of U87-MG cells was observed at the highest concentration”. Besides, the pIC50 at recombinant human ARG2 was 7.31.
